The values that follow come from patent publication US10988523B2, “Modified lipidated Relaxin B chain peptides and their therapeutic use” (Sanofi, priority 2018, dated 2021).

Usually Emax stands for the size of the effect at its maximum, as opposed to the concentration needed. For orientation: EC50 means the midpoint of the concentration-response curve.

The experiment concerns the target T1, RXFP1 (Homo sapiens, UniProt Q9HBX9).
T1 construct: OVCAR5 cells expressing endogenous RXFP1; endogenous in cells; host or cells: OVCAR5 cells
T1 sequence (Q9HBX9 1-757): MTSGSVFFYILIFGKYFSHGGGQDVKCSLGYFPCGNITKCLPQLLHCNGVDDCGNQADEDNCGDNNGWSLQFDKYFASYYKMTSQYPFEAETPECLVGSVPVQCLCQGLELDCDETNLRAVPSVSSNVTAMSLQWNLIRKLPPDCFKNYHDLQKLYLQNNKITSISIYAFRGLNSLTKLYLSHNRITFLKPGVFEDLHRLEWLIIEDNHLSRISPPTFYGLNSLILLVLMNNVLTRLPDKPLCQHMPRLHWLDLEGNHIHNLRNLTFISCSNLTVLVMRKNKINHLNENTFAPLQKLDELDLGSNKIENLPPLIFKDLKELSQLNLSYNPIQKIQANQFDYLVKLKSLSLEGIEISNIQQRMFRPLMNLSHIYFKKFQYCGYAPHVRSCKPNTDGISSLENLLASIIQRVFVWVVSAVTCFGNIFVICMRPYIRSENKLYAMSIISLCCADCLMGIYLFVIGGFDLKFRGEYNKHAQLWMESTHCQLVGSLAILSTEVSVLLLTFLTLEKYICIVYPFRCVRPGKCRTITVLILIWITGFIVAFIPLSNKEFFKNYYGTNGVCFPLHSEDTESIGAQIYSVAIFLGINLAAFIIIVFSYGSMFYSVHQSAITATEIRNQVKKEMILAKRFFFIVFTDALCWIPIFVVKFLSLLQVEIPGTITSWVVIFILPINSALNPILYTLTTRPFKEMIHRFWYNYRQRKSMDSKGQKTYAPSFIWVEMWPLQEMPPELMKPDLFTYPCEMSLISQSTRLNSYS
Briefly: OVCAR5 cAMP assay (HTRF), RXFP1 agonist activity. The class given is cell-based. The note with it: for Emax: OVCAR-5, maximal cAMP relative to H2-relaxin maximum (100%), read-out: EMax, OVCAR 5 cells (cAMP); for EC50: OVCAR5 cells, cAMP HTRF, read-out: EC50 (nM), OVCAR 5 cells (cAMP). The procedure, abridged:
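OVCAR5 cells (endogenous RXFP1) pretreated 40 min at 37° C with 1 mM IBMX, then exposed to peptides in serum-free medium for 30 min at 37° C. Lysate cAMP read by HTRF; EC50 from variable-slope sigmoidal fit; Emax as % of H2-relaxin maximal cAMP in same run.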
On the technique in general: cAMP levels reflect the balance of adenylyl cyclase and phosphodiesterase activity.

*1 amine or outer side, *2 acyl side, *3 side chain or, on linkers, in order; H or OH if unused. Where a SMILES comes first, the peptide text is derived from it. Side-chain parts run from the residue outwards. [ ]: non-standard residue; d: D form. The star is where a group is joined. γGlu = O=C(O)[C@H](CCC(=O)[*:2])N[*:1]; Arg(Me) = CNC(=N)NCCC[C@H](N)C(=O)O; Stearoyl = CCCCCCCCCCCCCCCCCC(=O)*; Palmitoyl = CCCCCCCCCCCCCCCC(=O)*; Cit = NC(=O)NCCC[C@H](N)C(=O)O; αMeK = C[C@](N)(CCCCN)C(=O)O; Nle = CCCC[C@H](N)C(=O)O; AEEA = NCCOCCOCC(=O)O; Aib = CC(C)(N)C(=O)O

Take `CCCCCCCCCCCCCCCCCC(=O)N[C@@H](CCC(=O)N[C@@H](CCC(=O)N[C@@H](CCC(=O)NCCOCCOCC(=O)NCCOCCOCC(=O)NCCOCCOCC(=O)NCCCC[C@H](NC(=O)[C@H](CCCCNC(C)=O)NC(=O)[C@H](C)NC(=O)[C@H](CCCNC(N)=O)NC(=O)C(C)(C)NC(=O)[C@H](CO)NC(=O)[C@H](Cc1c[nH]c2ccccc12)NC(=O)[C@@H](NC(=O)[C@H](CO)NC(=O)[C@H](CCCC)NC(=O)CNC(=O)[C@H](CCC(=O)O)NC(=O)C(C)(C)NC(=O)C(C)(C)NC(=O)[C@@H](NC(=O)[C@H](CCCCNC(C)=O)NC(=O)[C@H](C)NC(=O)[C@H](CCCNC(=N)N)NC(=O)[C@@H](NC(=O)[C@H](CCCCN)NC(=O)[C@H](CCC(=O)O)NC(=O)[C@H](CCCNC(=N)N)NC(=O)CNC(=O)[C@H](CCC(=O)O)NC(=O)[C@H](CC(C)C)NC(C)=O)C(C)C)[C@@H](C)CC)[C@@H](C)O)C(N)=O)C(=O)O)C(=O)O)C(=O)O` [compound 126] (Ac-LEGREKVRAK(Ac)I[Aib][Aib]EG[Nle]STWS[Aib][Cit]AK(Ac)K([AEEA-AEEA-AEEA-γGlu-γGlu-γGlu-Stearoyl])-NH2): the maximal response (Emax) is 91%.

As to `CCCCCCCCCCCCCCCCCC(=O)N[C@@H](CCC(=O)N[C@@H](CCC(=O)N[C@@H](CCC(=O)N[C@@H](CCC(=O)NCCOCCOCC(=O)NCCOCCOCC(=O)NCCOCCOCC(=O)NCCCC[C@H](NC(=O)[C@H](CCCCNC(C)=O)NC(=O)[C@H](CCCCN)NC(=O)[C@H](CCCNC(=N)N)NC(=O)C(C)(C)NC(=O)[C@H](CO)NC(=O)[C@H](Cc1c[nH]c2ccccc12)NC(=O)[C@@H](NC(=O)[C@H](CO)NC(=O)[C@H](CCCC)NC(=O)CNC(=O)[C@H](CCC(=O)O)NC(=O)C(C)(C)NC(=O)C(C)(C)NC(=O)[C@@H](NC(=O)[C@H](CCCCNC(C)=O)NC(=O)[C@H](C)NC(=O)[C@H](CCCNC(=N)N)NC(=O)[C@@H](NC(=O)[C@H](CCCCN)NC(=O)[C@H](CCC(=O)O)NC(=O)[C@H](CCCNC(=N)N)NC(=O)CNC(=O)[C@H](CCC(=O)O)NC(=O)[C@H](CC(C)C)NC(C)=O)C(C)C)[C@@H](C)CC)[C@@H](C)O)C(N)=O)C(=O)O)C(=O)O)C(=O)O)C(=O)O` [compound 128] (Ac-LEGREKVRAK(Ac)I[Aib][Aib]EG[Nle]STWS[Aib]RKK(Ac)K([AEEA-AEEA-AEEA-γGlu-γGlu-γGlu-γGlu-Stearoyl])-NH2), the concentration for a half-maximal effect (EC50) came out at 0.22 nM and the maximum response (Emax) was 91%.

On to `CCCCCCCCCCCCCCCCCC(=O)N[C@@H](CCC(=O)N[C@@H](CCC(=O)N[C@@H](CCC(=O)NCCOCCOCC(=O)NCCOCCOCC(=O)NCCOCCOCC(=O)NCCCC[C@H](NC(=O)[C@H](CCCCNC(C)=O)NC(=O)[C@H](CCCCN)NC(=O)[C@H](CCCNC(N)=O)NC(=O)[C@](C)(CCCCN)NC(=O)[C@H](CO)NC(=O)[C@H](Cc1c[nH]c2ccccc12)NC(=O)[C@@H](NC(=O)[C@H](CO)NC(=O)[C@H](CCCC)NC(=O)CNC(=O)[C@H](CCC(=O)O)NC(=O)C(C)(C)NC(=O)C(C)(C)NC(=O)[C@@H](NC(=O)[C@H](CCCCNC(C)=O)NC(=O)[C@H](C)NC(=O)[C@H](CCCNC(=N)N)NC(=O)[C@@H](NC(=O)[C@H](CCCCN)NC(=O)[C@H](CCC(=O)O)NC(=O)[C@H](CCCNC(=N)N)NC(=O)CNC(=O)[C@H](CCC(=O)O)NC(=O)[C@H](CC(C)C)NC(C)=O)C(C)C)[C@@H](C)CC)[C@@H](C)O)C(N)=O)C(=O)O)C(=O)O)C(=O)O` [compound 129] (Ac-LEGREKVRAK(Ac)I[Aib][Aib]EG[Nle]STWS[αMeK][Cit]KK(Ac)K([AEEA-AEEA-AEEA-γGlu-γGlu-γGlu-Stearoyl])-NH2), for which the 50% effective concentration (EC50) stood at 1 nM and the maximal effect (Emax) was 89%.

Regarding `CCCCCCCCCCCCCCCC(=O)N[C@@H](CCC(=O)N[C@@H](CCC(=O)N[C@@H](CCC(=O)N[C@@H](CCC(=O)NCCOCCOCC(=O)NCCOCCOCC(=O)NCCOCCOCC(=O)NCCOCCOCC(=O)NCCCC[C@H](NC(=O)[C@H](CCCCNC(C)=O)NC(=O)[C@H](CCCCN)NC(=O)[C@H](CCCNC(=N)N)NC(=O)C(C)(C)NC(=O)[C@H](CO)NC(=O)[C@H](Cc1c[nH]c2ccccc12)NC(=O)[C@@H](NC(=O)[C@H](CO)NC(=O)[C@H](CCCC)NC(=O)CNC(=O)[C@H](CCC(=O)O)NC(=O)C(C)(C)NC(=O)C(C)(C)NC(=O)[C@@H](NC(=O)[C@H](CCCCNC(C)=O)NC(=O)[C@H](C)NC(=O)[C@H](CCCNC(=N)N)NC(=O)[C@@H](NC(=O)[C@H](CCCCN)NC(=O)[C@H](CCC(=O)O)NC(=O)[C@H](CCCNC(=N)N)NC(=O)CNC(=O)[C@H](CCC(=O)O)NC(=O)[C@H](CC(C)C)NC(C)=O)C(C)C)[C@@H](C)CC)[C@@H](C)O)C(N)=O)C(=O)O)C(=O)O)C(=O)O)C(=O)O` [compound 130] (Ac-LEGREKVRAK(Ac)I[Aib][Aib]EG[Nle]STWS[Aib]RKK(Ac)K([AEEA-AEEA-AEEA-AEEA-γGlu-γGlu-γGlu-γGlu-Palmitoyl])-NH2), the Emax amounted to 93%.

`CCCCCCCCCCCCCCCCCC(=O)N[C@@H](CCC(=O)N[C@@H](CCC(=O)N[C@@H](CCC(=O)NCCOCCOCC(=O)NCCOCCOCC(=O)NCCOCCOCC(=O)NCCOCCOCC(=O)NCCCC[C@H](NC(=O)[C@H](CCCCNC(C)=O)NC(=O)[C@H](C)NC(=O)[C@H](CCCNC(N)=O)NC(=O)[C@](C)(CCCCN)NC(=O)[C@H](CO)NC(=O)[C@H](Cc1c[nH]c2ccccc12)NC(=O)[C@@H](NC(=O)[C@H](CO)NC(=O)[C@H](CCCC)NC(=O)CNC(=O)[C@H](CCC(=O)O)NC(=O)C(C)(C)NC(=O)C(C)(C)NC(=O)[C@@H](NC(=O)[C@H](CCCCNC(C)=O)NC(=O)[C@H](C)NC(=O)[C@H](CCCNC(=N)N)NC(=O)[C@@H](NC(=O)[C@H](CCCCN)NC(=O)[C@H](CCC(=O)O)NC(=O)[C@H](CCCNC(=N)N)NC(=O)CNC(=O)[C@H](CCC(=O)O)NC(=O)[C@H](CC(C)C)NC(C)=O)C(C)C)[C@@H](C)CC)[C@@H](C)O)C(N)=O)C(=O)O)C(=O)O)C(=O)O` [compound 132] (Ac-LEGREKVRAK(Ac)I[Aib][Aib]EG[Nle]STWS[αMeK][Cit]AK(Ac)K([AEEA-AEEA-AEEA-AEEA-γGlu-γGlu-γGlu-Stearoyl])-NH2): the Emax was 87%.

Turning to `CCCCCCCCCCCCCCCCCC(=O)N[C@@H](CCC(=O)N[C@@H](CCC(=O)N[C@@H](CCC(=O)NCCOCCOCC(=O)NCCOCCOCC(=O)NCCOCCOCC(=O)NCCCC[C@H](NC(=O)[C@H](CCCCNC(C)=O)NC(=O)[C@H](CCCCN)NC(=O)[C@H](CCCNC(=N)NC)NC(=O)C(C)(C)NC(=O)[C@H](CO)NC(=O)[C@H](Cc1c[nH]c2ccccc12)NC(=O)[C@@H](NC(=O)[C@H](CO)NC(=O)[C@H](CCCC)NC(=O)CNC(=O)[C@H](CCC(=O)O)NC(=O)C(C)(C)NC(=O)C(C)(C)NC(=O)[C@@H](NC(=O)[C@H](CCCCNC(C)=O)NC(=O)[C@H](C)NC(=O)[C@H](CCCNC(=N)N)NC(=O)[C@@H](NC(=O)[C@H](CCCCN)NC(=O)[C@H](CCC(=O)O)NC(=O)[C@H](CCCNC(=N)N)NC(=O)CNC(=O)[C@H](CCC(=O)O)NC(=O)[C@H](CC(C)C)NC(C)=O)C(C)C)[C@@H](C)CC)[C@@H](C)O)C(N)=O)C(=O)O)C(=O)O)C(=O)O` [compound 133] (Ac-LEGREKVRAK(Ac)I[Aib][Aib]EG[Nle]STWS[Aib][Arg(Me)]KK(Ac)K([AEEA-AEEA-AEEA-γGlu-γGlu-γGlu-Stearoyl])-NH2), the EC50 came out at 0.01 nM and the Emax was 83%.
